Columns and labels:
NSCs [1] = assay: Neurosphere self-renewal assay of the NSCs; type: cell-based, mice; conditions: 0.1, 1, 10 μM for 16 hours vs control group, especially 1 μM
Procedure: To determine whether the HIF-1α-Bmi-1 pathway regulates the proliferation of the NSCs a neurosphere self-renewal assay is performed in this example. In the neurosphere self-renewal assay, the NSCs are cultured in non-adherent cultures to form neurospheres for examining the effect of the HIF-1α-Bmi-1 pathway on the self-renewal of the neurosphere.
(§1) To prepare the NSCs, after removal of meninges, subventricular zones (SVZ) of lateral ventricles from adult mice brain (4 week-of-age) are aseptically isolated and dissociated as previously described (J Cell Sci 2006; 119, 4467-4474). All steps are operated under sterile conditions. Then, neurosphere culture are prepared in neurobasal (NB) medium (Gibco BRL) supplemented with 2% of B27 (Gibco BRL), 2 mM of L-glutamine (PAN Biotech), 100 U/ml of penicillin/0.1 mg/L of streptomycin (Gibco BRL). For maintenance and expansion of the cultures, the NB/B27 is further supplemented with 2 μg/mL of heparin (Sigma), 20 ng/mL of FGF-2 (R&D Systems) and 20 ng/mL of EGF (R&D Systems). Neurosphere cultures are maintained at 37° C. in a humidified incubator with 5% CO2. For clonal/low density cultures, primary neurospheres grown at high density are dissociated into a single cell suspension and reseeded into 96-well plates at 100 cells per ml of media and the number of newly formed neurospheres is counted after 7 days. In addition, the Bmi-1 expressions, SOX2 expressions, Nestin expressions, Musashi-1 expressions, BrdU expressions and ki-67 expressions of the newly formed neurospheres are determined by the immunofluorescence staining.
In another example, the NSCs are treated with different dosages of the Compound 1 (0.1 μM, 1 μM and 10 μM) for 16 hours, wherein the NSCs treated with 1 μM of the Compound 1 are further transduced with the LV-Bmi-1-sh or LV-HIF-1α-sh respectively. Then the NSCs are cultured in the neurosphere culture to observe the frequency of the neurosphere formation, the self-renewal potential of the NSCs and the neurosphere size. […]

NSCs [2] = assay: Proliferation marker expressions (BrdU, ki-67) of the NSCs, immunofluorescence staining; type: cell-based, mice; conditions: 0.1, 1, 10 μM for 16 hours, especially 1 μM
Procedure: as §1, with “Neurosphere cultures are maintained at 37° C. in a humidified incubator with 5% CO2.” left out
To measure the effect of the administration of the Compound 1 on proliferation marker expressions of the NSCs, the NSCs treated with the Compound 1 are detected by the immunofluorescence staining. […]

HIF-1α [3] = assay: HIF-1α expressions in the PCCs with hypoxic treatment, Western blot; type: cell-based, C57BL/6 mice; conditions: 1 μM 2-ME2 for 16 hours, FIG. 6C
Procedure: (§2) Test cells are primary cortical cultures (PCCs) in this example. The PCCs are prepared from cerebral cortexes of gestation day 17 embryos from C57BL/6 mice as described previously (Cell Death Differ 2008; 15: 143-151). The PCCs are maintained under serum-free conditions in neurobasal medium (Invitrogen), supplemented with B-27 supplement (2%; invitrogen), glutamine (0.5 mM; Sigma Aldrich), glutamate ([…]; Sigma Aldrich), penicillin (100 U/ml) and streptomycin ([…]; Invitrogen). At 4 days in vitro, half of the medium is removed and replaced with fresh medium without glutamate. The cultures are maintained in a humidified incubator at 37° C. with 5% CO2. At 7 days in vitro, the PCCs are used for experimentation.
One group of the PCCs is transduced with LV-HIF-1α-sh (sc-35562-V, Santa Cruz Biotechnology) and LV-control-sh (sc-108080, Santa Cruz Biotechnology) by a lenti-viral infection to reduce the HIF-1α expressions. Another group of the PCCs is treated with 1 μM of 2-ME2 for 16 hours to reduce the HIF-1α expressions in the PCCs. In FIG. 6C, the HIF-1α expressions in the PCCs are decreased both in the LV-HIF-1α-sh transduced group and the 2-ME2 treated group.

HIF-1α [4] = assay: Nuclear translocation of the HIF-1α in the PCCs under hypoxia, double immunofluorescence; type: cell-based, C57BL/6 mice; conditions: 1 μM 2-ME2 for 16 hours, then 1% O2 for 8 hours, FIG. 6A
Procedure: as §2
The subcellular locations of the HIF-1α and the Bmi-1 in the PCCs under hypoxia are examined by double immunofluorescence study. The PCCs are divided into three groups. One group is cultured with 21% of O2 as a control group. Another group is cultured with 1% of O2 for 8 hours as a hypoxic group. The other group is treated with 1 μM of 2-ME2 for 16 hours and then cultured with 1% of O2 for 8 hours as a 2-ME2 treated hypoxic group.

Bmi-1 = Bmi-1 expressions of the brains of 2-ME2 treated ischemic rats, immunohistochemistry and Western blot; type: in vivo, Sprague-Dawley (SD) rats; conditions: 2-ME2 50, 100 or 150 mg/kg intraperitoneal, dose-dependent manner, FIGS. 5B, 5C
Excerpt: The ischemic rats are induced by an ischemia-reperfusion model to simulate transient focal cerebral ischemia in rats. Test animals are male Sprague-Dawley (SD) rats weighing 250-300 g. The rats are anesthetized with chloral hydrate (0.4 g/kg IP) and subjected to cerebral ischemia. The ischemia-reperfusion model is induced by ligations of bilateral common carotid arteries (CCAs) and a right middle cerebral artery (MCA). The bilateral CCAs are clamped with non-traumatic arterial clips, and the right MCA is ligated with an 10-0 nylon suture. After 90 minutes ischemia, the suture on the MCA and the arterial clips on CCAs are removed to allow reperfusion. Core body temperature is monitored with a thermistor probe (Hewlett-Packard Model 21090A probe, Hewlett-Packard Company, Andover, Mass.), and maintained at 37° C. with a heating pad during anesthesia. After recovery from anesthesia, rat body temperature is maintained at 37° C. with a heat lamp.
2-ME2 (Sigma Aldrich, USA) is dissolved in DMSO to obtain a 10 mmol/L solution. For in vivo experiments, the whole procedure is performed as previously described (Clin Cancer Res 2004, 10: 8665-8673). […]

Row | Structure (SMILES) | frequency of the neurosphere formation (NSCs [1]; FIG. 11F) | self-renewal potential of the NSCs (NSCs [1]; FIG. 11G) | neurosphere size (NSCs [1]; FIG. 11H) | proportion of the BrdU+ cells in the neurosphere culture (NSCs [2]; FIG. 12B) | proportion of the ki-67+ cells in the neurosphere culture (NSCs [2]; FIG. 12C) | HIF-1α expressions in the PCCs (HIF-1α [3]) | translocation of the HIF-1α to the nucleus under hypoxia (HIF-1α [4]) | upregulated Bmi-1 immunoreactivity and protein expressions after the cerebral ischemia (Bmi-1)
1 | COC(=O)C1=CO[C@@H](O)[C@@H]2C(COC(=O)[C@@H](N)Cc3ccccc3)=CC[C@H]12 [Compound 1] | significantly higher frequency of the neurosphere formation | more self-renewal potential | larger neurosphere size | increases the proportion | increases the proportion |  |  | 
2 | COc1cc2c(cc1O)CC[C@@H]1[C@@H]2CC[C@]2(C)[C@@H](O)CC[C@@H]12 [Compound 2-ME2, 2-Methoxyestradiol, reference compound] |  |  |  |  |  | decreased | abolishes the translocation | suppressed

Reference: patent US10035791B2, “Bicyclic compound and pharmaceutical composition thereof for treating stroke and use thereof” (China Medical University, priority 2016, dated 2018)
